According to patent US20040023386A1, “Modulation of nitric oxide synthase by PKC” (Joslin Diabetes Center, Inc., a Massachusetts corporation, priority 2000, published 2004):

Columns and labels:
eNOS mRNA [1] = test: eNOS mRNA level in BAECs (Northern blot); assay type: cell-based, bovine
Experimental: (§1) Bovine aortic endothelial cells (BAECs) from passages 4 to 10 were isolated. Confluent cells were placed in DMEM containing 1% platelet-deprived horse serum (PDHS) for 24 hours before being studied and pretreated with the following inhibitors: phosphatidylinositol-3 (PI-3) kinase-selective inhibitors wortmannin (Sigma Chemical Co) and LY294002 (BIOMOL Research Laboratories), protein kinase C (PKC) activator phorbol-12-myristate-13-acetate (PMA) (Sigma Chemical Co), general PKC inhibitor GF109203X (GFX) (Calbiochem-Novabiochem Corp), and PKCβ isoform-selective inhibitor LY333531 (Lilly Inc). Cells were then stimulated with insulin (Sigma Chemical Co), recombinant insulin-like growth factor-1 (IGF-1) (Upstate Biotechnology), and LPC (Avanti Polar Lipid) or alpha-IR3 antibodies.
(§2) Total RNA from cultured BAECs, PKCβ1-overexpressed BAECs, and vascular stroma from the epididymal fat pads of Zucker rats were isolated according to the guanidinium thiocyanate-phenol-chloroform method with TRI Reagent (Molecular Research Center) and solution D containing 4 mol/L guanidinium thiocyanate, 25 mmol/L sodium citrate, pH 7.0, 0.5% sarcosyl, and 0.1 mol/L 2-mercaptoethanol. Total RNA (20 μg) was fractionated and hybridized to 650-bp cDNA fragments of rat eNOS (kindly provided by Dr Mark A. Perella and Arthur M. E. Lee, Harvard School of Public Health, Boston, Mass.), which were labeled with the use of a DNA labeling system (Multiprime; Amersham Corp). The quantification of eNOS mRNA levels was performed with a PhosphorImager (Molecular Dynamics) and normalized to 36B4 mRNA.

eNOS protein = test: Immunoblot analysis of eNOS protein in BAECs; assay type: cell-based, bovine
Experimental: as §1
Cells were washed 3 times with ice-cold PBS, pH 7.4, lysed in 50 mmol/L Tris, pH 7.5, 2 mmol/L EDTA, 0.5 mmol/L EGTA, 2 mmol/L PMSF, 25 μg/mL leupeptin, 0.1 mg/mL aprotinin, 1 mmol/L dithiothreitol, 50 mmol/L NaF, and 1% Triton X-100 (Sigma Chemical Co); scraped from the dish; rotated for 1 hour at 4° C.; and centrifuged for 15 minutes at 14 000 g. Protein concentrations of the supernatant were measured according to the method of Bradford and separated with the use of 6% SDS-PAGE. The membrane was incubated for 1 hour with polyclonal anti-human eNOS antibody (Transduction Laboratories) diluted in PBS containing 0.1% Tween-20 and 1% BSA, washed 3 times for 10 minutes with PBS containing 0.1% Tween-20, and incubated with 0.1 μCi/ML ^125I-protein A (Amersham Life Science, Inc). Protein levels of eNOS were quantified with a PhosphorImager.

[2] = system: IRS-2-associated PI-3 kinase; test: Assay of IRS-2-associated PI-3 kinase activity in BAECs; assay type: cell-based, bovine
Experimental: After preincubation with or without 100 nmol/L PMA for 30 minutes, BAECs were stimulated with insulin (100 nmol/L) for 5 minutes. Cells were processed as described previously for this assay. Aliquots of proteins from the supernatant were immunoprecipitated with 10 μL/ml anti-alpha-insulin receptor substrates (IRS)-2 antibodies (kindly provided by Dr Morris F. White, Joslin Diabetes Center, Boston, Mass) for 2 hours and bound to protein A-Sepharose beads at 4° C. as described previously. The lipids were quantified with a PhosphorImager.

NOS activity = test: Assay of NOS activity in BAECs; assay type: cell-based, bovine; settings: insulin 100 nmol/L
Experimental: The amount of NOS activity produced by BAECs was measured by using an NOS Detect assay kit (Transduction Laboratories) according to the manufacturer's instructions. Briefly, BAECs were harvested in PBS containing 1 mmol/L EDTA and centrifuged at 12 000 g. The pellets were lysed in homogenization buffer containing 25 mmol/L Tris, pH 7.4, 1 mmol/L EDTA, and 1 mmol/L EGTA and centrifuged at 12 000 g. Aliquots from the supernatant were used for the measurement of NOS activity through the conversion of [^3H]L-arginine to [^3H]L-citrulline. Data were normalized by the amount of protein and reaction time.

eNOS mRNA [3] = test: eNOS mRNA level in human umbilical endothelial cells; assay type: cell-based; settings: IGF-1 25 nmol/L
eNOS mRNA [4] = test: eNOS mRNA level in adenovirus-infected BAECs (PKCβ1 or β-Gal); assay type: cell-based, bovine; settings: for increase of eNOS mRNA levels: LPC 100 μmol/L
Experimental: The construction of a replication-deficient recombinant adenovirus for PKCβ1 expression was performed as described in Becker et al. Methods Cell Biol. 1994;43:161-189. Adenovirus-mediated gene transfer to confluent BAECs was performed through a 1-hour adenoviral infection of 10^9 pfu/mL at 37° C. in DMEM containing 10% PDHS. The infected BAECs were then incubated in DMEM containing 1% PDHS for 24 hours, incubated with or without insulin (100 nmol/L) for an additional 6 hours, and harvested. AdV-CMV-PKCβ1- or β-galactosidase (β-Gal)-infected BAECs were assessed for PKC activity and protein expression as previously described.
as §2

eNOS mRNA [5] = test: eNOS mRNA level in vascular stroma from epididymal fat pads of Zucker rats; assay type: cell-based; settings: insulin 100 nmol/L, 6 hours
Experimental: Vascular stromas were obtained from the epididymal fat pads of 12-week-old Zucker lean and fatty rats (Harlan Sprague Dawley, Inc). Epididymal fat pads were isolated, minced, and incubated with 0.2% collagenase I for 30 minutes at 37° C. Then, they were fractionated with the use of a Dounce homogenizer and centrifuged at 3000 g for 20 minutes to isolate vessels from adipocytes. Vascular stroma were washed with DMEM containing 0.2% BSA and incubated with DMEM containing 0.2% BSA with or without insulin for 6 hours at 37° C. T he purity of the isolated vascular stroma was quantified through immunohistochemical staining with anti-factor VIII antibody and through immunoblotting of the stroma with antibodies to smooth muscle cell alpha-actin. Only preparations that were stained positively in more than 90% of the vessels were used.
Total RNA from cultured BAECs, PKCβ1-overexpressed BAECs, and vascular stroma from the epididymal fat pads of Zucker rats were isolated according to the guanidinium thiocyanate-phenol-chloroform method with TRI Reagent (Molecular Research Center) and solution D containing 4 mol/L guanidinium thiocyanate, 25 mmol/L sodium citrate, pH 7.0, 0.5% sarcosyl, and 0.1 mol/L 2-mercaptoethanol. […] The quantification of eNOS mRNA levels was performed with a PhosphorImager (Molecular Dynamics) and normalized to 36B4 mRNA.

## CN(C)CCCn1cc(C2=C(c3c[nH]c4ccccc34)C(=O)NC2=O)c2ccccc21 [GFX, reference compound]
eNOS mRNA [1]; GFX 5 μmol/L without insulin, 6 hours
  increase of eNOS mRNA expression: 38±10%
eNOS mRNA [1]; both insulin and GFX
  increase of eNOS mRNA expression compared with control cells: 76±20%

## O=c1cc(N2CCOCC2)oc2c(-c3ccccc3)cccc12 [LY294002, reference compound]
eNOS mRNA [1]; LY294002 50 nmol/L, without insulin treatment
  decrease of basal eNOS mRNA expression: 30±4%
eNOS protein; LY294002 50 nmol/L
  decrease of basal eNOS protein level: 72±5%

## CN(C)C[C@@H]1CCn2cc(c3ccccc32)C2=C(C(=O)NC2=O)c2cn(c3ccccc23)CCO1 [LY333531, reference compound]
eNOS mRNA [1]; LY333531 20 nmol/L
  increase of eNOS mRNA expression: 60±14%

## CCCCCCCCCCCCCC(=O)O[C@@H]1[C@@H](C)[C@@]2(O)[C@@H](C=C(CO)C[C@]3(O)C(=O)C(C)=C[C@@H]23)[C@@H]2C(C)(C)[C@]12OC(C)=O [PMA, phorbol-12-myristate-13-acetate, reference compound]
[2]; PMA 100 nmol/L preincubation 30 minutes
  effect on insulin-induced IRS-2-associated PI-3 kinase activity: mostly inhibited
[2]; PMA treatment
  basal PI-3 kinase activity: not changed
eNOS mRNA [1]; PMA 100 nmol/L, 12 hours
  increase of eNOS mRNA expression: 66±11%
eNOS mRNA [1]; PMA 100 nmol/L, 24 hours
  increase of eNOS mRNA expression: 105±14%
eNOS mRNA [1]; PMA 100 nmol/L, initial 6 hours
  change of eNOS mRNA level: did not change
eNOS mRNA [1]; preincubated with PMA for 30 minutes, then insulin
  remaining effect of insulin on eNOS mRNA levels after PMA preincubation: 14±13%

## COC[C@H]1OC(=O)c2coc3c2[C@@]1(C)C1=C(C3=O)[C@@H]2CCC(=O)[C@@]2(C)C[C@H]1OC(C)=O [wortmannin, reference compound]
NOS activity; wortmannin 100 nmol/L preincubation for 15 minutes
  insulin-induced NOS activity after preincubation with inhibitor: 123±13 pmol/mg protein min

## IGF-1: recombinant insulin-like growth factor-1 (Upstate Biotechnology)
eNOS mRNA [3]
  increase of eNOS mRNA level: 47±10%

## insulin: insulin (Sigma Chemical Co), used to stimulate endothelial cells
[2]; insulin 100 nmol/L, 5 minutes
  increase of IRS-2-associated PI-3 kinase activity: 5.4±0.4 fold
eNOS mRNA [4]; insulin 100 nmol/L, BAECs with or without adenovirus containing only β-Gal
  enhancement of eNOS mRNA expression: ≤ 2 fold
eNOS mRNA [4]; insulin, cells infected with adenovirus containing the PKCβ1 isoform
  change of eNOS mRNA levels: did not increase
NOS activity; after 24 hours
  NOS activity: 176±7 pmol/mg protein min
eNOS mRNA [1]
  concentration at which maximal effect on eNOS mRNA level was attained: < 100 nmol/L
eNOS mRNA [1]; insulin 0.1 nmol/L
  response of eNOS mRNA expression: significant increase
eNOS mRNA [1]; insulin 10 nmol/L
  increase of eNOS mRNA level: 50±12%
eNOS mRNA [1]; insulin 100 nmol/L
  maximum effect on eNOS mRNA level (dose response): 2 fold
eNOS mRNA [1]; insulin 100 nmol/L, 1 hour
  increase of eNOS mRNA expression: 33±9%
eNOS mRNA [1]; insulin 100 nmol/L, 6 hours
  increase of eNOS mRNA expression: 71±21%
eNOS mRNA [1]; insulin 100 nmol/L, 12 hours, maintained for 24 hours
  maximum increase of eNOS mRNA expression: 2 fold
eNOS mRNA [1]; insulin 100 nmol/L, Example 2
  increase of eNOS mRNA level compared with control: 58±20%
eNOS mRNA [5]; vascular stroma from Zucker lean rats
  increase of eNOS mRNA levels: 50±16%
eNOS mRNA [5]; vascular stroma from insulin-resistant (Zucker fatty) rats
  effect on eNOS mRNA levels: ineffective
eNOS protein; insulin 100 nmol/L, Example 2
  increase of eNOS protein level: 74±9%
eNOS protein; insulin, 6 hours
  increase of eNOS protein levels: 43±16%
eNOS protein; insulin, 24 hours, maintained for 36 hours
  maximum increase of eNOS protein levels: 2 fold

## lysophosphatidylcholine [LPC]
eNOS mRNA [4]; adenovirus-containing β-Gal cells
  increase of eNOS mRNA levels: 4.5 fold
eNOS mRNA [4]; control cells
  increase of eNOS mRNA levels: 5 fold
eNOS mRNA [4]; LPC, BAECs infected with the adenoviral-PKCβ1 isoform
  increase of eNOS mRNA: 4 fold
